Assay results published in ChEMBL document CHEMBL5715937, “In vitro activity of Bcr-Abl inhibitors AMN107 and BMS-354825 against clinically relevant imatinib-resistant Abl kinase domain mutants” (Cancer Res, 2005).
Activity calls are given as the source filed them. The calls are words filed in the database; no cut-off is given here.

Tests used:
BaF3 [1] = experiment: Induction of apoptosis in mouse BaF3 cells expressing Bcr-Abl F359V mutant assessed as increase in apoptotic cells at 1500 nM incubated for 72 hrs by Annexin V-phycoerythrin and 7-amino-actinomycin D staining based PCA instrument analysis relative to control; assay type: functional
[2] = Cytotoxicity against mouse BaF3 cells assessed as reduction in cell proliferation incubated for 72 hrs by […] CellTiter96 viability analysis; assay type: toxicity
cells = conditions: Mus musculus, BaF3, 3 h
BaF3 [3] = experiment: Induction of apoptosis in mouse BaF3 cells expressing Bcr-Abl Y253F mutant at 30 to 300 nM incubated for 72 hrs by Annexin V-phycoerythrin and 7-amino-actinomycin D staining based PCA instrument analysis; assay type: functional, cell-based; conditions: dose 30-300 nM
BaF3 [4] = experiment: Induction of apoptosis in mouse BaF3 cells expressing Bcr-Abl L387M mutant at 30 to 300 nM incubated for 72 hrs by Annexin V-phycoerythrin and 7-amino-actinomycin D staining based PCA instrument analysis; assay type: functional, cell-based; conditions: dose 30-300 nM

Cc1cn(-c2cc(NC(=O)c3ccc(C)c(Nc4nccc(-c5cccnc5)n4)c3)cc(C(F)(F)F)c2)cn1 [NILOTINIB]
Activity (BaF3 [1]): >90% | IC50 at 72 h [2]: > 2000 nM | IC50 (cells): 155 nM | Activity (BaF3 [3]): Active | Activity (BaF3 [4]): Active
